{"source": "patent US4950659A", "about": "“16,17-acetalsubstituted androstane-17β-carboxylic acid esters prossessing high binding affinity to the glucocorticosteroid receptor” (Aktiebolaget Draco, priority 1985, dated 1990)", "data": [{"biological_target": "T1, glucocorticoid receptor (Rattus norvegicus, UniProt P06536)", "T1 construct": "The thymus was removed and put into ice-cold saline; from tissue; host or cells: thymus of male Sprague-Dawley rats, 20,000×g supernatant of homogenate", "T1 sequence (P06536 1-795)": "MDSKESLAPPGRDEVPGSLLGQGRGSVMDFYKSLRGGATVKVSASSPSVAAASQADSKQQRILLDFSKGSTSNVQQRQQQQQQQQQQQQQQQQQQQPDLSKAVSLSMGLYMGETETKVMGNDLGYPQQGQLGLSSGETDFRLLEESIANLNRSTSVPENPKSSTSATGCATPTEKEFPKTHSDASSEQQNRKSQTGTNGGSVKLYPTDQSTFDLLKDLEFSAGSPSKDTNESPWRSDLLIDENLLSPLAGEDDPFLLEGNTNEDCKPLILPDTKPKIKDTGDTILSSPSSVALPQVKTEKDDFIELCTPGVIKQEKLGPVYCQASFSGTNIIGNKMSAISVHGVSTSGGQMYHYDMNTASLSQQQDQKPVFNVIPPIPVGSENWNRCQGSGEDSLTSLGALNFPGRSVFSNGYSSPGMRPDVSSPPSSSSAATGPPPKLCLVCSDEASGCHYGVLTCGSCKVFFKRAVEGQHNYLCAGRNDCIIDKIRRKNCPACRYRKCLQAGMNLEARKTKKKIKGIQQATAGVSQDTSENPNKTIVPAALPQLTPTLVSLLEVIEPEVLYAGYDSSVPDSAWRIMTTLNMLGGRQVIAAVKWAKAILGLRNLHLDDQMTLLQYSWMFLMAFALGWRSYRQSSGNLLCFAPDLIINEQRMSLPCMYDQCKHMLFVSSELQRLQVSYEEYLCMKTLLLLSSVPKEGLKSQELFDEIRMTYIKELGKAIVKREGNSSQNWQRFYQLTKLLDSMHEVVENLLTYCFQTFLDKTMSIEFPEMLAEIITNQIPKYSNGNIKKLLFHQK", "assay": "Relative binding affinity to the glucocorticoid receptor: competition with 3H-labelled dexamethasone in rat thymus 20,000×g supernatant", "details": "curves compared at the 50% specific binding level of [3H]dexamethasone, referenced to budesonide, assigned RBA = 1, about 24 h at 0° C.", "protocol": "All steroids according to the present invention are physiologically active compounds. The affinity of the novel androstane-17β-carboxylic acid esters to the glucocorticoid receptor has been used as a model for determination of the anti-inflammatory potency.\nMale Sprague-Dawley rats, one to two months of age, were used throughout the investigation. The thymus was removed and put into ice-cold saline. The tissue was homogenized in a Potter Elvehjem homogenizer in 10 ml of a buffer containing 20 mM Tris, pH 7.4, 10% (w/v) glycerol, 1 mM EDTA, 20 mM NaMoO4, 10 mM mercaptoethanol. The homogenate was centrifuged for 15 min at 20,000×g. Portions of the 20,000×g supernatant (230 μl) were incubated for about 24 h at 0° C. with 100 μl phenylmethylsulphonylfluoride (an esterase inhibitor, final conc. 0.5 mM). 20 μl unlabelled competitor and 50 μl ^3 H-labelled dexamethasone (final conc. […]). Bound and free steroid were separated by incubating the mixture with 60 μl 2.5% (w/v) charcoal and 0.25% (w/v) dextran T70 suspension in 20 mM Tris, pH 7.4, 1 mM EDTA, and 20 mM NaMoO4 for 10 min at 0° C. Following a centrifugation at 500×g for 10 min, 230 μl or the supernatant was counted in 10 ml Insta-Gel in a Packard scintillation spectrophotometer. The supernatants were incubated with (a) [^3 H]dexamethasone alone, (b) [^3 H]dexamethasone plus 1000 fold excess of unlabelled dexamethasone and (c) [^3 H]dexamethasone plus 0.03-300 fold \"excess\" of competitor. The nonspecific binding was determined when 1000 fold excess of unlabelled dexamethasone was added to [^3 H]-labelled dexamethasone.\nThe radioactivity bound to the receptor in the presence of competitor divided by the radioactivity bound to the receptor in the absence of competitor multiplied by 100 gives the percentage specific binding of labelled dexamethasone. For each concentration of a competitor the percentage specifically bound radioactivity is plotted against the log of concentration of competitor. The curves are compared at the 50% specific binding level and referenced to budesonide, which is assigned a relative binding affinity (RBA) of 1.", "values": [{"smiles": "CCC[C@@H]1O[C@@H]2C[C@H]3[C@@H]4C[C@H](F)C5=CC(=O)C=C[C@]5(C)[C@@]4(F)[C@@H](O)C[C@]3(C)[C@]2(C(=O)OC(C)OC(=O)OC(C)C)O1", "note": "(single isomer, unassigned) [Example 87]", "relative binding affinities (RBA) to the glucocorticoid receptor": 0.63}, {"smiles": "CCC[C@@H]1O[C@@H]2C[C@H]3[C@@H]4CCC5=CC(=O)C=C[C@]5(C)[C@H]4[C@@H](O)C[C@]3(C)[C@]2(C(=O)OC(C)OC(=O)OCC)O1", "note": "(stereo partly shown) [Example 67]", "relative binding affinities (RBA) to the glucocorticoid receptor": 0.04}, {"smiles": "CCOC(=O)OC(C)OC(=O)C12OC(C)(C)OC1CC1C3CC(F)C4=CC(=O)C=CC4(C)C3(F)C(O)CC12C", "note": "(single isomer, unassigned) [Example 4 epimer B, 1'-Ethoxycarbonyloxyethyl 6α,9α-difluoro-11β-hydroxy-16α,17α-[(1-methylethylidene)bis(oxy)]androsta-1,4-diene-3-one-17β-carboxylate]", "relative binding affinities (RBA) to the glucocorticoid receptor": 0.30}, {"smiles": "CCC[C@@H]1O[C@@H]2C[C@H]3[C@@H]4C[C@H](F)C5=CC(=O)C=C[C@]5(C)[C@@]4(F)[C@@H](O)C[C@]3(C)[C@]2(C(=O)OCOC(=O)OCC)O1", "note": "[Example 64]", "relative binding affinities (RBA) to the glucocorticoid receptor": 0.05}, {"smiles": "CCC[C@@H]1O[C@@H]2C[C@H]3[C@@H]4CCC5=CC(=O)C=C[C@]5(C)[C@@]4(F)[C@@H](O)C[C@]3(C)[C@]2(C(=O)OC(C)OC(=O)OCC)O1", "note": "(single isomer, unassigned) [Example 69]", "relative binding affinities (RBA) to the glucocorticoid receptor": 0.44}, {"smiles": "CC(=O)OC(C)OC(=O)C12OC(C)(C)OC1CC1C3CC(F)C4=CC(=O)C=CC4(C)C3(F)C(O)CC12C", "note": "(single isomer, unassigned) [Example 5 epimer B, 1'-Acetoxyethyl 6α,9α-difluoro-11β-hydroxy-16α,17α-[(1-methylethylidene)bis(oxy)]androsta-1,4-diene-3-one-17β-carboxylate]", "relative binding affinities (RBA) to the glucocorticoid receptor": 0.17}, {"smiles": "CCC[C@@H]1O[C@@H]2C[C@H]3[C@@H]4C[C@H](F)C5=CC(=O)C=C[C@]5(C)[C@@]4(F)[C@@H](O)C[C@]3(C)[C@]2(C(=O)OC(C)OC(=O)OCC)O1", "note": "(single isomer, unassigned) [Example 84]", "relative binding affinities (RBA) to the glucocorticoid receptor": 1.03}, {"smiles": "CC(C)OC(=O)OC(C)OC(=O)C12OC(C)(C)OC1CC1C3CC(F)C4=CC(=O)C=CC4(C)C3(F)C(O)CC12C", "note": "(single isomer, unassigned) [Example 27, 1'-isopropoxycarbonyloxyethyl 6α,9α-difluoro-11β-hydroxy-16α,17α-[(1-methylethylidene)bis(oxy)]androsta-1,4-diene-3-one-17β-carboxylate]", "relative binding affinities (RBA) to the glucocorticoid receptor": 0.50}, {"smiles": "CCOC(=O)OC(C)(C)OC(=O)C12OC(C)(C)OC1CC1C3CC(F)C4=CC(=O)C=CC4(C)C3(F)C(O)CC12C", "note": "(stereo not shown) [Example 38]", "relative binding affinities (RBA) to the glucocorticoid receptor": 0.04}, {"smiles": "CCC[C@@H]1O[C@@H]2C[C@H]3[C@@H]4CCC5=CC(=O)C=C[C@]5(C)[C@@]4(F)[C@@H](O)C[C@]3(C)[C@]2(C(=O)OC(C)OC(C)=O)O1", "note": "(single isomer, unassigned) [Example 55]", "relative binding affinities (RBA) to the glucocorticoid receptor": 0.20}]}]}
